The supplement of paper PMC11451515

Key:
Conditions in all cases: 48 h
P12-Ichikawa [1] = assay: AUC of viability dose-response curve (% viability x log10 dose units); higher = less sensitive
In short: (§1)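 Library compounds in DMSO were applied for 48 h at 37°C at 11 threefold doses (47 μM to 0.79 nM) to medium-adapted leukemia cells in 1536-well plates holding 500 or 1000 cells/well. Luminescence from CellTiter-Glo One was normalised plate by plate against DMSO and cell-free wells. Area under the curve came from trapezoidal integration of a log-logistic fit, after scaling curves that rose above full viability and discarding those that failed quality control. The fit had four parameters and used log10 doses.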

SEM cells [2] = assay: as above
In short: as §1

NOMO1 [3] = assay: as above
In short: as §1

P12-Ichikawa [4] = assay: cell viability relative to DMSO control; higher = less cytotoxic
In short: (§2)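 Cells were incubated for 48 h at 37°C before CellTiter-Glo One luminescence was read. The cells were NOMO1 or SEM (500 cells/well) or P12-Ichikawa (1000 cells/well) leukemia cells, adapted for at least four passages in each medium and seeded in 1536-well plates (5 μl). Dosing used library compounds in DMSO applied by pin over 11 threefold points, 47 μM to 0.79 nM. Viability is the per-plate percentage of DMSO wells, with cell-free wells as background.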

SEM cells [5] = assay: as above
In short: as §2

NOMO1 [6] = assay: as above
In short: as §2

Clc2cccc(Cl)c2\N=C1/NCCN1
AUC of viability dose-response curve
Conditions	NOMO1 [3]	P12-Ichikawa [1]	SEM cells [2]
HPLM + 10% dialyzed FBS	455	446	414
RPMI 5 mM glucose + 10% FBS	474	448	407
RPMI 5 mM glucose + 10% dialyzed FBS	468	452	429

cell viability [%]
Conditions	NOMO1 [6]	P12-Ichikawa [4]	SEM cells [5]
HPLM + 10% dialyzed FBS, 0.000781 µM	117	109	76.6
HPLM + 10% dialyzed FBS, 0.00234 µM	101	115	98.6
HPLM + 10% dialyzed FBS, 0.00702 µM	118	71	28.8
HPLM + 10% dialyzed FBS, 0.0211 µM	105	123	105
HPLM + 10% dialyzed FBS, 0.0632 µM	125	116	90.8
HPLM + 10% dialyzed FBS, 0.19 µM	135	123	116
HPLM + 10% dialyzed FBS, 0.569 µM	121	120	119
HPLM + 10% dialyzed FBS, 1.71 µM	118	120	108
HPLM + 10% dialyzed FBS, 5.12 µM	132	116	114
HPLM + 10% dialyzed FBS, 15.4 µM	128	122	122
HPLM + 10% dialyzed FBS, 46.1 µM	122	121	113
RPMI 5 mM glucose + 10% FBS, 0.000781 µM	102	109	92.7
RPMI 5 mM glucose + 10% FBS, 0.00234 µM	113	120	103
RPMI 5 mM glucose + 10% FBS, 0.00702 µM	124	73.8	9.62
RPMI 5 mM glucose + 10% FBS, 0.0211 µM	120	121	119
RPMI 5 mM glucose + 10% FBS, 0.0632 µM	112	127	106
RPMI 5 mM glucose + 10% FBS, 0.19 µM	118	130	115
RPMI 5 mM glucose + 10% FBS, 0.569 µM	113	137	105
RPMI 5 mM glucose + 10% FBS, 1.71 µM	124	126	112
RPMI 5 mM glucose + 10% FBS, 5.12 µM	105	135	112
RPMI 5 mM glucose + 10% FBS, 15.4 µM	116	126	119
RPMI 5 mM glucose + 10% FBS, 46.1 µM	111	123	110
RPMI 5 mM glucose + 10% dialyzed FBS, 0.000781 µM	105	95.8	93.3
RPMI 5 mM glucose + 10% dialyzed FBS, 0.00234 µM	130	115	116
RPMI 5 mM glucose + 10% dialyzed FBS, 0.00702 µM	109	80.2	28.5
RPMI 5 mM glucose + 10% dialyzed FBS, 0.0211 µM	123	113	126
RPMI 5 mM glucose + 10% dialyzed FBS, 0.0632 µM	122	115	131
RPMI 5 mM glucose + 10% dialyzed FBS, 0.19 µM	121	121	132
RPMI 5 mM glucose + 10% dialyzed FBS, 0.569 µM	123	120	127
RPMI 5 mM glucose + 10% dialyzed FBS, 1.71 µM	137	120	130
RPMI 5 mM glucose + 10% dialyzed FBS, 5.12 µM	120	112	131
RPMI 5 mM glucose + 10% dialyzed FBS, 15.4 µM	114	124	117
RPMI 5 mM glucose + 10% dialyzed FBS, 46.1 µM	115	124	138

Cc1nc(-c2ccc(OCC(C)C)c(C#N)c2)sc1C(=O)O
AUC of viability dose-response curve
Conditions	NOMO1 [3]	P12-Ichikawa [1]	SEM cells [2]
HPLM + 10% dialyzed FBS	461	467	475
RPMI 5 mM glucose + 10% FBS	471	424	472
RPMI 5 mM glucose + 10% dialyzed FBS	468	437	458

cell viability [%]
Conditions	NOMO1 [6]	P12-Ichikawa [4]	SEM cells [5]
HPLM + 10% dialyzed FBS, 0.000781 µM	104	114	110
HPLM + 10% dialyzed FBS, 0.00234 µM	123	124	110
HPLM + 10% dialyzed FBS, 0.00702 µM	127	122	101
HPLM + 10% dialyzed FBS, 0.0211 µM	128	117	120
HPLM + 10% dialyzed FBS, 0.0632 µM	142	119	115
HPLM + 10% dialyzed FBS, 0.19 µM	126	117	104
HPLM + 10% dialyzed FBS, 0.569 µM	153	112	122
HPLM + 10% dialyzed FBS, 1.71 µM	137	116	108
HPLM + 10% dialyzed FBS, 5.12 µM	140	119	106
HPLM + 10% dialyzed FBS, 15.4 µM	118	106	110
HPLM + 10% dialyzed FBS, 46.1 µM	138	92.7	113
RPMI 5 mM glucose + 10% FBS, 0.000781 µM	111	–	125
RPMI 5 mM glucose + 10% FBS, 0.00234 µM	128	–	112
RPMI 5 mM glucose + 10% FBS, 0.00702 µM	119	–	116
RPMI 5 mM glucose + 10% FBS, 0.0211 µM	121	–	104
RPMI 5 mM glucose + 10% FBS, 0.0632 µM	137	–	105
RPMI 5 mM glucose + 10% FBS, 0.19 µM	129	–	104
RPMI 5 mM glucose + 10% FBS, 0.569 µM	138	–	121
RPMI 5 mM glucose + 10% FBS, 1.71 µM	137	–	105
RPMI 5 mM glucose + 10% FBS, 5.12 µM	117	–	105
RPMI 5 mM glucose + 10% FBS, 15.4 µM	131	–	122
RPMI 5 mM glucose + 10% FBS, 46.1 µM	118	–	124
RPMI 5 mM glucose + 10% dialyzed FBS, 0.000781 µM	120	–	107
RPMI 5 mM glucose + 10% dialyzed FBS, 0.00234 µM	123	–	132
RPMI 5 mM glucose + 10% dialyzed FBS, 0.00702 µM	120	–	121
RPMI 5 mM glucose + 10% dialyzed FBS, 0.0211 µM	116	–	131
RPMI 5 mM glucose + 10% dialyzed FBS, 0.0632 µM	132	–	127
RPMI 5 mM glucose + 10% dialyzed FBS, 0.19 µM	131	–	111
RPMI 5 mM glucose + 10% dialyzed FBS, 0.569 µM	122	–	106
RPMI 5 mM glucose + 10% dialyzed FBS, 1.71 µM	125	–	111
RPMI 5 mM glucose + 10% dialyzed FBS, 5.12 µM	125	–	126
RPMI 5 mM glucose + 10% dialyzed FBS, 15.4 µM	125	–	132
RPMI 5 mM glucose + 10% dialyzed FBS, 46.1 µM	129	–	138

CN(CCOc1ccc(CC2SC(=O)NC2=O)cc1)c1ccccn1 (stereo not given)
AUC of viability dose-response curve
Conditions	NOMO1 [3]	P12-Ichikawa [1]	SEM cells [2]
HPLM + 10% dialyzed FBS	442	467	469
RPMI 5 mM glucose + 10% FBS	474	465	433
RPMI 5 mM glucose + 10% dialyzed FBS	443	462	466

cell viability [%]
Conditions	NOMO1 [6]	P12-Ichikawa [4]	SEM cells [5]
HPLM + 10% dialyzed FBS, 0.000781 µM	–	116	116
HPLM + 10% dialyzed FBS, 0.00234 µM	–	124	117
HPLM + 10% dialyzed FBS, 0.00702 µM	–	113	121
HPLM + 10% dialyzed FBS, 0.0211 µM	–	121	106
HPLM + 10% dialyzed FBS, 0.0632 µM	–	116	113
HPLM + 10% dialyzed FBS, 0.19 µM	–	115	123
HPLM + 10% dialyzed FBS, 0.569 µM	–	120	117
HPLM + 10% dialyzed FBS, 1.71 µM	–	114	115
HPLM + 10% dialyzed FBS, 5.12 µM	–	114	124
HPLM + 10% dialyzed FBS, 15.4 µM	–	111	121
HPLM + 10% dialyzed FBS, 46.1 µM	–	103	116
RPMI 5 mM glucose + 10% FBS, 0.000781 µM	110	123	76.7
RPMI 5 mM glucose + 10% FBS, 0.00234 µM	113	130	94.7
RPMI 5 mM glucose + 10% FBS, 0.00702 µM	121	122	85.4
RPMI 5 mM glucose + 10% FBS, 0.0211 µM	108	116	102
RPMI 5 mM glucose + 10% FBS, 0.0632 µM	115	120	84.2
RPMI 5 mM glucose + 10% FBS, 0.19 µM	117	125	81.9
RPMI 5 mM glucose + 10% FBS, 0.569 µM	113	129	90.5
RPMI 5 mM glucose + 10% FBS, 1.71 µM	112	125	95.1
RPMI 5 mM glucose + 10% FBS, 5.12 µM	127	115	85.7
RPMI 5 mM glucose + 10% FBS, 15.4 µM	113	113	97.3
RPMI 5 mM glucose + 10% FBS, 46.1 µM	109	106	104
RPMI 5 mM glucose + 10% dialyzed FBS, 0.000781 µM	–	123	107
RPMI 5 mM glucose + 10% dialyzed FBS, 0.00234 µM	–	123	119
RPMI 5 mM glucose + 10% dialyzed FBS, 0.00702 µM	–	127	113
RPMI 5 mM glucose + 10% dialyzed FBS, 0.0211 µM	–	119	117
RPMI 5 mM glucose + 10% dialyzed FBS, 0.0632 µM	–	116	113
RPMI 5 mM glucose + 10% dialyzed FBS, 0.19 µM	–	123	107
RPMI 5 mM glucose + 10% dialyzed FBS, 0.569 µM	–	127	112
RPMI 5 mM glucose + 10% dialyzed FBS, 1.71 µM	–	118	106
RPMI 5 mM glucose + 10% dialyzed FBS, 5.12 µM	–	113	121
RPMI 5 mM glucose + 10% dialyzed FBS, 15.4 µM	–	112	114
RPMI 5 mM glucose + 10% dialyzed FBS, 46.1 µM	–	97.4	122
